Test system: 616215-338-R-J1-PDC tumor spheroids, viability
Assay: Anticancer human tumor 616215-338-R-J1-PDC patient-derived colon adenocarcinoma cell line growth inhibition [GQUAD]
Conditions: spheroids with HUVEC and MSC; for IC50: curve of first compound; for viability, T/C: stronger effect = lower value
Method in brief: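 Multi-cell-type spheroids of tumor cells with HUVEC and mesenchymal stem cells, treated with drug combinations. Concentrations descend in half-log steps from near clinical Cmax, or from 10 microM where Cmax is unknown; viability read-out.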

[1] = second compound 0.0316 µM, first compound 0.0316 µM
[2] = second compound 0.0316 µM, first compound 0.1 µM
[3] = second compound 0.0316 µM, first compound 0.316 µM
[4] = second compound 0.0316 µM, first compound 1 µM
[5] = second compound 0.0316 µM, first compound 3.16 µM
[6] = second compound 0.0316 µM, first compound 10 µM
[7] = second compound 0.1 µM, first compound 0.0316 µM
[8] = second compound 0.1 µM, first compound 0.1 µM
[9] = second compound 0.1 µM, first compound 0.316 µM
[10] = second compound 0.1 µM, first compound 1 µM
[11] = second compound 0.1 µM, first compound 3.16 µM
[12] = second compound 0.1 µM, first compound 10 µM
[13] = second compound 0.316 µM, first compound 0.0316 µM
[14] = second compound 0.316 µM, first compound 0.1 µM
[15] = second compound 0.316 µM, first compound 0.316 µM
[16] = second compound 0.316 µM, first compound 1 µM
[17] = second compound 0.316 µM, first compound 3.16 µM
[18] = second compound 0.316 µM, first compound 10 µM
[19] = second compound 1 µM, first compound 0.0316 µM
[20] = second compound 1 µM, first compound 0.1 µM
[21] = second compound 1 µM, first compound 0.316 µM
[22] = second compound 1 µM, first compound 1 µM
[23] = second compound 1 µM, first compound 3.16 µM
[24] = second compound 1 µM, first compound 10 µM
[25] = second compound 3.16 µM, first compound 0.0316 µM
[26] = second compound 3.16 µM, first compound 0.1 µM
[27] = second compound 3.16 µM, first compound 0.316 µM
[28] = second compound 3.16 µM, first compound 1 µM
[29] = second compound 3.16 µM, first compound 3.16 µM
[30] = second compound 3.16 µM, first compound 10 µM
[31] = second compound 10 µM, first compound 0.0316 µM
[32] = second compound 10 µM, first compound 0.1 µM
[33] = second compound 10 µM, first compound 0.316 µM
[34] = second compound 10 µM, first compound 1 µM
[35] = second compound 10 µM, first compound 3.16 µM
[36] = second compound 10 µM, first compound 10 µM
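Further: spheroids exposed to agents for 7 days before readout.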
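Wherever viability, T/C is given: percent viability relative to DMSO vehicle control wells taken as 100%.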

## C#Cc1c(F)ccc2cc(O)cc(-c3ncc4c(N5CC6CCC(C5)N6)nc(OCC56CCCN5CC(F)C6)nc4c3F)c12 (stereo unspecified) + CN(C)c1ccc(Nc2c3ccc(NC(=O)CCN4CCCC4)cc3nc3cc(NC(=O)CCN4CCCC4)ccc23)cc1
Second compound 0.0316 µM
  IC50: > 10 µM
Second compound 0.1 µM
  IC50: 9.07 µM
Second compound 0.316 µM
  IC50: > 10 µM
Second compound 1 µM
  IC50: 9.22 µM
Second compound 3.16 µM
  IC50: 8.57 µM
Second compound 10 µM
  IC50: 3.02 µM
[1]
  viability, T/C: 91.1%
[2]
  viability, T/C: 103%
[3]
  viability, T/C: 102%
[4]
  viability, T/C: 113%
[5]
  viability, T/C: 108%
[6]
  viability, T/C: 61.4%
[7]
  viability, T/C: 103%
[8]
  viability, T/C: 105%
[9]
  viability, T/C: 111%
[10]
  viability, T/C: 111%
[11]
  viability, T/C: 105%
[12]
  viability, T/C: 44.9%
[13]
  viability, T/C: 106%
[14]
  viability, T/C: 109%
[15]
  viability, T/C: 110%
[16]
  viability, T/C: 105%
[17]
  viability, T/C: 90.4%
[18]
  viability, T/C: 64.3%
[19]
  viability, T/C: 109%
[20]
  viability, T/C: 100%
[21]
  viability, T/C: 106%
[22]
  viability, T/C: 105%
[23]
  viability, T/C: 98%
[24]
  viability, T/C: 46.3%
[25]
  viability, T/C: 109%
[26]
  viability, T/C: 86.8%
[27]
  viability, T/C: 100%
[28]
  viability, T/C: 93.5%
[29]
  viability, T/C: 106%
[30]
  viability, T/C: 42.3%
[31]
  viability, T/C: 99.4%
[32]
  viability, T/C: 79.6%
[33]
  viability, T/C: 94.2%
[34]
  viability, T/C: 67.5%
[35]
  viability, T/C: 50.1%
[36]
  viability, T/C: 22.4%

## CC(=O)O[C@H]1C(=O)[C@@]2(C)[C@H]([C@H](OC(=O)c3ccccc3)[C@]3(O)C[C@H](OC(=O)[C@H](O)[C@@H](NC(=O)c4ccccc4)c4ccccc4)C(C)=C1C3(C)C)[C@]1(OC(C)=O)CO[C@@H]1C[C@@H]2O + CN(C)c1ccc(Nc2c3ccc(NC(=O)CCN4CCCC4)cc3nc3cc(NC(=O)CCN4CCCC4)ccc23)cc1
Second compound 0.0316 µM
  IC50: < 0.0316 µM
Second compound 0.1 µM
  IC50: < 0.0316 µM
Second compound 0.316 µM
  IC50: < 0.0316 µM
Second compound 1 µM
  IC50: < 0.0316 µM
Second compound 3.16 µM
  IC50: < 0.0316 µM
Second compound 10 µM
  IC50: < 0.0316 µM
[1]
  viability, T/C: 28.9%
[2]
  viability, T/C: 20.4%
[3]
  viability, T/C: 18.1%
[4]
  viability, T/C: 14.6%
[5]
  viability, T/C: 12.1%
[6]
  viability, T/C: 13.2%
[7]
  viability, T/C: 24.7%
[8]
  viability, T/C: 19.5%
[9]
  viability, T/C: 16.4%
[10]
  viability, T/C: 14%
[11]
  viability, T/C: 12.8%
[12]
  viability, T/C: 11.4%
[13]
  viability, T/C: 41.4%
[14]
  viability, T/C: 22.1%
[15]
  viability, T/C: 14.8%
[16]
  viability, T/C: 10.8%
[17]
  viability, T/C: 12.3%
[18]
  viability, T/C: 14.2%
[19]
  viability, T/C: 34%
[20]
  viability, T/C: 15%
[21]
  viability, T/C: 16%
[22]
  viability, T/C: 8.58%
[23]
  viability, T/C: 16.5%
[24]
  viability, T/C: 12.9%
[25]
  viability, T/C: 28.6%
[26]
  viability, T/C: 14.3%
[27]
  viability, T/C: 15.3%
[28]
  viability, T/C: 11.1%
[29]
  viability, T/C: 11.2%
[30]
  viability, T/C: 11.8%
[31]
  viability, T/C: 26.2%
[32]
  viability, T/C: 16.4%
[33]
  viability, T/C: 17.4%
[34]
  viability, T/C: 12.2%
[35]
  viability, T/C: 9.14%
[36]
  viability, T/C: 11.9%

## CCCS(=O)(=O)Nc1ccc(F)c(C(=O)c2c[nH]c3ncc(-c4ccc(Cl)cc4)cc23)c1F + CN(C)c1ccc(Nc2c3ccc(NC(=O)CCN4CCCC4)cc3nc3cc(NC(=O)CCN4CCCC4)ccc23)cc1
Second compound 0.0316 µM
  IC50: 5.56 µM
Second compound 0.1 µM
  IC50: 5.39 µM
Second compound 0.316 µM
  IC50: 5.39 µM
Second compound 1 µM
  IC50: 5.91 µM
Second compound 3.16 µM
  IC50: 5.18 µM
Second compound 10 µM
  IC50: 3.79 µM
[1]
  viability, T/C: 103%
[2]
  viability, T/C: 110%
[3]
  viability, T/C: 108%
[4]
  viability, T/C: 105%
[5]
  viability, T/C: 94.3%
[6]
  viability, T/C: 3.74%
[7]
  viability, T/C: 101%
[8]
  viability, T/C: 92.6%
[9]
  viability, T/C: 112%
[10]
  viability, T/C: 94.6%
[11]
  viability, T/C: 89.8%
[12]
  viability, T/C: 3.81%
[13]
  viability, T/C: 105%
[14]
  viability, T/C: 96.5%
[15]
  viability, T/C: 99.7%
[16]
  viability, T/C: 92%
[17]
  viability, T/C: 89.3%
[18]
  viability, T/C: 4.92%
[19]
  viability, T/C: 112%
[20]
  viability, T/C: 88.7%
[21]
  viability, T/C: 89.1%
[22]
  viability, T/C: 100%
[23]
  viability, T/C: 97.3%
[24]
  viability, T/C: 10.3%
[25]
  viability, T/C: 101%
[26]
  viability, T/C: 99.4%
[27]
  viability, T/C: 105%
[28]
  viability, T/C: 85.4%
[29]
  viability, T/C: 84.9%
[30]
  viability, T/C: 7.85%
[31]
  viability, T/C: 88.9%
[32]
  viability, T/C: 73.8%
[33]
  viability, T/C: 94%
[34]
  viability, T/C: 88%
[35]
  viability, T/C: 58.4%
[36]
  viability, T/C: 5.74%
